Assay results: US9302999B2, “Substituted triazoles as herbicides” (E. I. DU PONT DE NEMOURS AND COMPANY, priority 2012, dated 2016)

How the values were obtained:
Assay type in all cases: in vivo
[1] = tested on: galium (catchweed bedstraw, Galium aparine); test: Test C pre-/postemergence: galium
Outline: (§1)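 Visual injury scored 0–100 (100 = complete control) against untreated controls after 13–15 greenhouse days. Surfactant-containing solvent formulations applied either to soil after sowing (loam/sand) or over 1- to 4-leaf plants, 2–18 cm tall.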

[2] = tested on: ragweed (common ragweed, Ambrosia elation); test: Test C pre-/postemergence: ragweed
Outline: as §1

[3] = tested on: pigweed (Amaranthus retroflexus); test: Test C pre-/postemergence: pigweed
Outline: as §1

[4] = tested on: blackgrass (Alopecurus myosuroides); test: Test C pre-/postemergence: blackgrass
Outline: as §1

[5] = tested on: winter wheat (Triticum aestivum); test: Test C pre-/postemergence: winter wheat
Outline: as §1

[6] = tested on: pigweed (Amaranthus retroflexus); test: Test A pre-/postemergence: pigweed; details: for Pigweed plant response rating: visual rating on 0 to 100 scale (0 no effect, 100 complete control), approximately ten days
Outline: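 Soil medium was loam blended with sand; treatments pre- and postemergence were applied concurrently, postemergence at one- to two-leaf stage. Approximately ten days in greenhouse preceded visual comparison with untreated controls, scored 0 (no effect) to 100 (complete control).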

[7] = tested on: rice (Oryza sativa); test: Test B flooded paddy: rice; details: Flood; 250 g ai/ha; applied to paddy water at 2-leaf stage; visually evaluated after 13 to 15 days
Outline: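 At two leaves, seedlings received the test compound via the paddy water, pots having been flooded 3 cm over the soil surface and kept so. Greenhouse-held for 13 to 15 days, then judged by eye against controls on a scale running 0 (no effect) to 100 (complete control).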

[8] = tested on: wild oat (Avena fatua); test: Test C pre-/postemergence: wild oat
Outline: as §1

[9] = tested on: nutsedge, yellow (yellow nutsedge, Cyperus esculentus); test: Test C pre-/postemergence: nutsedge, yellow
Outline: as §1

[10] = tested on: morningglory (Ipomoea coccinea); test: Test C pre-/postemergence: morningglory
Outline: as §1

[11] = Preemergence, 31 g ai/ha, scale of 0 to 100, 0 is no effect, 100 is complete control
[12] = Preemergence, 62 g ai/ha, scale of 0 to 100, 0 is no effect, 100 is complete control
[13] = Preemergence, 125 g ai/ha, scale 0 to 100, 0 no effect, 100 complete control
[14] = Preemergence, 250 g ai/ha, scale 0 to 100, 0 no effect, 100 complete control
[15] = Postemergence, 125 g ai/ha, 0 to 100 scale, 0 is no effect, 100 is complete control
[16] = Preemergence, 125 g ai/ha, 0 to 100 scale where 0 is no effect and 100 is complete control
[17] = Preemergence, 500 g ai/ha, 0 to 100 scale (0 no effect, 100 complete control)
[18] = Postemergence, 31 g ai/ha, scale 0 to 100 (0 no effect, 100 complete control)
[19] = Postemergence, 62 g ai/ha, scale 0 to 100 (0 no effect, 100 complete control)
[20] = Postemergence, 125 g ai/ha, scale 0 to 100, 0 no effect, 100 complete control
[21] = Postemergence, 250 g ai/ha, scale 0 to 100

## Cc1nn(-c2ccc(F)cc2F)nc1Oc1ccnc(C(F)(F)F)c1 [Compound 146]
[1]; [11]
  Plant response rating, Galium: 95
[1]; [12]
  Plant response rating, Galium: 95
[1]; [13]
  Plant response rating, Galium: 95
[1]; [14]
  Plant response rating, Galium: 100
[2]; [11]
  Plant response rating, Ragweed: 0
[2]; [12]
  Plant response rating, Ragweed: 0
[2]; [13]
  Plant response rating, Ragweed: 45
[2]; [14]
  Plant response rating, Ragweed: 45
[3]; [11]
  Plant response rating, Pigweed: 85
[3]; [12]
  Plant response rating, Pigweed: 90
[3]; [13]
  Plant response rating, Pigweed: 100
[3]; [14]
  Plant response rating, Pigweed: 100
[4]; [11]
  Plant response rating, Blackgrass: 50
[4]; [12]
  Plant response rating, Blackgrass: 70
[4]; [13]
  Plant response rating, Blackgrass: 90
[4]; [14]
  Plant response rating, Blackgrass: 90
[5]; [12]
  Plant response rating, Wheat: 0
[5]; [13]
  Plant response rating, Wheat: 0
[5]; [14]
  Plant response rating, Wheat: 10
[6]; [15]
  Plant response rating, Pigweed: 100
[6]; Postemergence, 500 g ai/ha
  Pigweed plant response rating: 100
[6]; [16]
  Plant response rating, Pigweed: 100
[6]; [17]
  Plant response rating, Pigweed: 100
[7]
  Plant response rating, Rice (0 to 100 scale, 0 is no effect, 100 is complete control): 35
[8]; [11]
  Plant response rating, Oat, Wild: 5
[8]; [12]
  Plant response rating, Oat, Wild: 40
[8]; [13]
  Plant response rating, Oat, Wild: 85
[8]; [14]
  Plant response rating, Oat, Wild: 90
[9]; [11]
  Plant response rating, Nutsedge, Yellow: 0
[9]; [12]
  Plant response rating, Nutsedge, Yellow: 0
[9]; [14]
  Plant response rating, Nutsedge, Yellow: 10
[10]; [11]
  Plant response rating, Morningglory: 35
[10]; [12]
  Plant response rating, Morningglory: 40
[10]; [13]
  Plant response rating, Morningglory: 45
[10]; [14]
  Plant response rating, Morningglory: 90

## Cc1nn(-c2ccnc(Cl)c2)nc1Cc1ccnc(C(F)(F)F)c1 [Compound 141]
[1]; [18]
  Plant response rating, Galium: 85
[1]; [19]
  Plant response rating, Galium: 85
[1]; [20]
  Plant response rating, Galium: 90
[1]; [21]
  Plant response rating, Galium: 90
[2]; [18]
  Plant response rating, Ragweed: 60
[2]; [19]
  Plant response rating, Ragweed: 70
[2]; [21]
  Plant response rating, Ragweed: 85
[3]; [18]
  Plant response rating, Pigweed: 95
[3]; [19]
  Plant response rating, Pigweed: 95
[3]; [20]
  Plant response rating, Pigweed: 98
[3]; [21]
  Plant response rating, Pigweed: 98
[4]; [18]
  Plant response rating, Blackgrass: 20
[4]; [19]
  Plant response rating, Blackgrass: 20
[4]; [20]
  Plant response rating, Blackgrass: 35
[4]; [21]
  Plant response rating, Blackgrass: 75
[5]; [18]
  Plant response rating, Wheat: 10
[5]; [19]
  Plant response rating, Wheat: 15
[5]; [20]
  Plant response rating, Wheat: 20
[5]; [21]
  Plant response rating, Wheat: 20
[6]; [15]
  Plant response rating, Pigweed: 100
[6]; Postemergence, 500 g ai/ha
  Pigweed plant response rating: 100
[6]; [16]
  Plant response rating, Pigweed: 100
[6]; [17]
  Plant response rating, Pigweed: 100
[7]
  Plant response rating, Rice (0 to 100 scale, 0 is no effect, 100 is complete control): 35
[8]; [18]
  Plant response rating, Oat, Wild: 10
[8]; [19]
  Plant response rating, Oat, Wild: 15
[8]; [20]
  Plant response rating, Oat, Wild: 45
[8]; [21]
  Plant response rating, Oat, Wild: 70
[9]; [18]
  Plant response rating, Nutsedge, Yellow: 0
[9]; [19]
  Plant response rating, Nutsedge, Yellow: 10
[9]; [20]
  Plant response rating, Nutsedge, Yellow: 15
[9]; [21]
  Plant response rating, Nutsedge, Yellow: 15
[10]; [18]
  Plant response rating, Morningglory: 85
[10]; [19]
  Plant response rating, Morningglory: 85
[10]; [20]
  Plant response rating, Morningglory: 95
